Like-named read-outs stand apart in the source and are kept apart here.
How the values were obtained:
[1] = molecular target: EGFR wildtype (WT) (Homo sapiens, UniProt P00533); test: Biochemical EGFR kinase assay (Lance Ultra TR-FRET), wildtype
Summary of the method: (§1)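 Step 1: compound in kinase buffer, 0.003–10 μM. Step 2: kinase reaction 1 h at room temperature. Step 4: TR-FRET read at 615/665 nm; IC50 calculated.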

[2] = molecular target: EGFR L858R/C797S (Homo sapiens, UniProt P00533, C797S/L858R); test: Biochemical EGFR kinase assay (Lance Ultra TR-FRET), double mutant L858R/C797S
Sequence of EGFR L858R/C797S (P00533 25-1210 C797S/L858R): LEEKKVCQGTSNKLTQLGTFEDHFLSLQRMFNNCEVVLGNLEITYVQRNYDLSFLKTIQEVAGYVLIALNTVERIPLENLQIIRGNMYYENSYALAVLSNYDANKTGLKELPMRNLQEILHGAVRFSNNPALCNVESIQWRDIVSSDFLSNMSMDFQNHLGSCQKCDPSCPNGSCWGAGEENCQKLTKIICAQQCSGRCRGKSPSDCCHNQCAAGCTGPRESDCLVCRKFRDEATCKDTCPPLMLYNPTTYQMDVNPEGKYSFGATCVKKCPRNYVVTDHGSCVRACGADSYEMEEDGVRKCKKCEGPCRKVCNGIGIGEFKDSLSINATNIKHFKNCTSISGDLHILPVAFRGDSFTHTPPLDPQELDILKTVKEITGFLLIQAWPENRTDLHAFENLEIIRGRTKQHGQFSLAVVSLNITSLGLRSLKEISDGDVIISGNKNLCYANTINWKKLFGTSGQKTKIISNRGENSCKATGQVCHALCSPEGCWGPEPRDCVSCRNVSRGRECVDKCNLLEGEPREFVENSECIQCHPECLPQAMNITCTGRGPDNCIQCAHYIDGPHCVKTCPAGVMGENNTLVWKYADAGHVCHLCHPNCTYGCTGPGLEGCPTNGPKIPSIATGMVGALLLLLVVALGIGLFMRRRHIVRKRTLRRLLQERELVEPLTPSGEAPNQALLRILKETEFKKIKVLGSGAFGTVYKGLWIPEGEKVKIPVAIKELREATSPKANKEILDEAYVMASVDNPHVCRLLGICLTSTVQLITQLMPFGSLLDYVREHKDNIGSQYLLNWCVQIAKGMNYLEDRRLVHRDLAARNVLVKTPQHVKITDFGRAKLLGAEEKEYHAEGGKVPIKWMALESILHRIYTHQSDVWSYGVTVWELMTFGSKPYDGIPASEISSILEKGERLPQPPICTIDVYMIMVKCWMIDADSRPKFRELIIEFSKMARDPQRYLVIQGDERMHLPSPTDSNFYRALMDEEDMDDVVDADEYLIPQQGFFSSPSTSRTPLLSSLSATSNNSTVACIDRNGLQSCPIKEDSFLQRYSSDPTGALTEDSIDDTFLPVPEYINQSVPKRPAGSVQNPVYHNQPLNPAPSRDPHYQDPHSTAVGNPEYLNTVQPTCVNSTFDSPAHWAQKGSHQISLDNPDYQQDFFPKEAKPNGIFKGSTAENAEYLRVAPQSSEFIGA
Summary of the method: as §1

[3] = molecular target: EGFR del19/T790M/C797S (Homo sapiens, UniProt P00533, C797S/DEL746-750/T790M); test: Biochemical EGFR kinase assay (Lance Ultra TR-FRET), triple mutant del19/T790M/C797S
Summary of the method: as §1

[4] = molecular target: EGFR del19/C797S (Homo sapiens, UniProt P00533, C797S/DEL746-750); test: Biochemical EGFR kinase assay (Lance Ultra TR-FRET), double mutant del19/C797S
Sequence of EGFR del19/C797S (P00533 with tags, fused parts or gaps DEL746-750/C797S): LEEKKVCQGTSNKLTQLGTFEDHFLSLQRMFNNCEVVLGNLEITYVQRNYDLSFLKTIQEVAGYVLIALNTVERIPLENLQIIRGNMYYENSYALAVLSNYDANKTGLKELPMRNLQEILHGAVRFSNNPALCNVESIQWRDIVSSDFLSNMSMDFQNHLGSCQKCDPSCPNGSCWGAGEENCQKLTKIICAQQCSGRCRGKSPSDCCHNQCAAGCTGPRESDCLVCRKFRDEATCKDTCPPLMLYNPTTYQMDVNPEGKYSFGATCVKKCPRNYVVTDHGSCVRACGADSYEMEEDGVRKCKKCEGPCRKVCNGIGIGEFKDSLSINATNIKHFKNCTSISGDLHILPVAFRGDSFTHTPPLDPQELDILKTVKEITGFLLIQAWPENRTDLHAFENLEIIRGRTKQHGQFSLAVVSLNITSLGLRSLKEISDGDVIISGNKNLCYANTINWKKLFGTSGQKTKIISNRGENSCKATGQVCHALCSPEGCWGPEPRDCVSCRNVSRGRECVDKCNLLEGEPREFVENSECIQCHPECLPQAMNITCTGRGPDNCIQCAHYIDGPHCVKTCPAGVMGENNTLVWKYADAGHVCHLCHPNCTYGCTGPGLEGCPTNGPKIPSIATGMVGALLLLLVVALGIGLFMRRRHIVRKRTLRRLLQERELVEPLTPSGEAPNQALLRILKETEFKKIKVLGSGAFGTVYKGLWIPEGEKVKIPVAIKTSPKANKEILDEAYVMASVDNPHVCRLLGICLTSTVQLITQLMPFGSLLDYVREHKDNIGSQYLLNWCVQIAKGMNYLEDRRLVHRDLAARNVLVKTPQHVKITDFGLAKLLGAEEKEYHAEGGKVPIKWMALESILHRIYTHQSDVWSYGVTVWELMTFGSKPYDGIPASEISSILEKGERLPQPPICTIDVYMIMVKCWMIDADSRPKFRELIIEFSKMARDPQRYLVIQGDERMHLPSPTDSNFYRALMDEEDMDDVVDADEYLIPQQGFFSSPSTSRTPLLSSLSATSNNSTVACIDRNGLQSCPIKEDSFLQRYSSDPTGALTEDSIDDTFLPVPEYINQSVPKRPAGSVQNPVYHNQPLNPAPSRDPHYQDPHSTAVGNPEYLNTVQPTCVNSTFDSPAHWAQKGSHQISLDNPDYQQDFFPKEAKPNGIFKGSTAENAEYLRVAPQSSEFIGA
Summary of the method: as §1

[5] = molecular target: EGFR L858R/T790M/C797S (Homo sapiens, UniProt P00533, C797S/L858R/T790M); test: Biochemical EGFR kinase assay (Lance Ultra TR-FRET), triple mutant L858R/T790M/C797S
Sequence of EGFR L858R/T790M/C797S (P00533 25-1210 T790M/C797S/L858R): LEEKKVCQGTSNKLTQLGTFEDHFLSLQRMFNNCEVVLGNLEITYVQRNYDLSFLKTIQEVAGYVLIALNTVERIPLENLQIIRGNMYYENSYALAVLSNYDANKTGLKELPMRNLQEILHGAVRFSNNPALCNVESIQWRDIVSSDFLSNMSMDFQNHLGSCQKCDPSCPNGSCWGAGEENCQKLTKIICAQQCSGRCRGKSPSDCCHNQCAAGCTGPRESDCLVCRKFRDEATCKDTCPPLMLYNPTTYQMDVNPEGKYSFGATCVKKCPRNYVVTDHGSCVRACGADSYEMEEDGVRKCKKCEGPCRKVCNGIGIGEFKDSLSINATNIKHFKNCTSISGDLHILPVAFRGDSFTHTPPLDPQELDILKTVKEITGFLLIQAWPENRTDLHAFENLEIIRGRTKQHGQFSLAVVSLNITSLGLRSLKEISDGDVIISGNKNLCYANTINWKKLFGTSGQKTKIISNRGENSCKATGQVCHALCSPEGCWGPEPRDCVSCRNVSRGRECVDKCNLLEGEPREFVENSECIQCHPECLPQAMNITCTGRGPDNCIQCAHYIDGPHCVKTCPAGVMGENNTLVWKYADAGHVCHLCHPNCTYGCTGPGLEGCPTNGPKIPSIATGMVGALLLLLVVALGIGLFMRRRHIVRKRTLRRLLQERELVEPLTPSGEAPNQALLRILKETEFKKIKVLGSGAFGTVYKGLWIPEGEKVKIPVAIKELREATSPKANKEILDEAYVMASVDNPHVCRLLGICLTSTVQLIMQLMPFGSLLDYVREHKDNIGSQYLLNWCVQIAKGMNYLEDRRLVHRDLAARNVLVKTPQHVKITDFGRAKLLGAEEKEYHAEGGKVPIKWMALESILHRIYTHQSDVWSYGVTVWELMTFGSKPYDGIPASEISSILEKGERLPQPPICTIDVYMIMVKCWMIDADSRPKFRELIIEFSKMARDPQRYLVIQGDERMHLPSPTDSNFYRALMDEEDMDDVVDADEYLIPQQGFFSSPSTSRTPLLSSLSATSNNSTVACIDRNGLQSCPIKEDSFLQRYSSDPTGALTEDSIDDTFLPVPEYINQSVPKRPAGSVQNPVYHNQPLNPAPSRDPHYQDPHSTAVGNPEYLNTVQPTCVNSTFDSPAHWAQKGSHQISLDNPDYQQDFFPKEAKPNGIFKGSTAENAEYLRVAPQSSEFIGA
Summary of the method: as §1

[6] = IC50 WT (nM) 100 μM ATP, 100 μM ATP
[7] = Km ATP, read-out: IC50 WT (nM) Km ATP
[8] = IC50 L858R/C797S (nM) 100 μM ATP, 100 μM ATP
[9] = Km ATP, read-out: IC50 L858R/C797S (nM) Km ATP
[10] = IC50 del19/T790M/C797S (nM) 100 μM ATP, 100 μM ATP
[11] = Km ATP, read-out: IC50 del19/T790M/C797S (nM) Km ATP
[12] = IC50 del19/C797S (nM) 100 μM ATP, 100 μM ATP
[13] = Km ATP, read-out: IC50 del19/C797S (nM) Km ATP
[14] = IC50 L858R/T790M/C797S (nM) 100 μM ATP, 100 μM ATP
[15] = Km ATP, read-out: IC50 L858R/T790M/C797S (nM) Km ATP

Sequence of EGFR wildtype (WT) (P00533 25-1210): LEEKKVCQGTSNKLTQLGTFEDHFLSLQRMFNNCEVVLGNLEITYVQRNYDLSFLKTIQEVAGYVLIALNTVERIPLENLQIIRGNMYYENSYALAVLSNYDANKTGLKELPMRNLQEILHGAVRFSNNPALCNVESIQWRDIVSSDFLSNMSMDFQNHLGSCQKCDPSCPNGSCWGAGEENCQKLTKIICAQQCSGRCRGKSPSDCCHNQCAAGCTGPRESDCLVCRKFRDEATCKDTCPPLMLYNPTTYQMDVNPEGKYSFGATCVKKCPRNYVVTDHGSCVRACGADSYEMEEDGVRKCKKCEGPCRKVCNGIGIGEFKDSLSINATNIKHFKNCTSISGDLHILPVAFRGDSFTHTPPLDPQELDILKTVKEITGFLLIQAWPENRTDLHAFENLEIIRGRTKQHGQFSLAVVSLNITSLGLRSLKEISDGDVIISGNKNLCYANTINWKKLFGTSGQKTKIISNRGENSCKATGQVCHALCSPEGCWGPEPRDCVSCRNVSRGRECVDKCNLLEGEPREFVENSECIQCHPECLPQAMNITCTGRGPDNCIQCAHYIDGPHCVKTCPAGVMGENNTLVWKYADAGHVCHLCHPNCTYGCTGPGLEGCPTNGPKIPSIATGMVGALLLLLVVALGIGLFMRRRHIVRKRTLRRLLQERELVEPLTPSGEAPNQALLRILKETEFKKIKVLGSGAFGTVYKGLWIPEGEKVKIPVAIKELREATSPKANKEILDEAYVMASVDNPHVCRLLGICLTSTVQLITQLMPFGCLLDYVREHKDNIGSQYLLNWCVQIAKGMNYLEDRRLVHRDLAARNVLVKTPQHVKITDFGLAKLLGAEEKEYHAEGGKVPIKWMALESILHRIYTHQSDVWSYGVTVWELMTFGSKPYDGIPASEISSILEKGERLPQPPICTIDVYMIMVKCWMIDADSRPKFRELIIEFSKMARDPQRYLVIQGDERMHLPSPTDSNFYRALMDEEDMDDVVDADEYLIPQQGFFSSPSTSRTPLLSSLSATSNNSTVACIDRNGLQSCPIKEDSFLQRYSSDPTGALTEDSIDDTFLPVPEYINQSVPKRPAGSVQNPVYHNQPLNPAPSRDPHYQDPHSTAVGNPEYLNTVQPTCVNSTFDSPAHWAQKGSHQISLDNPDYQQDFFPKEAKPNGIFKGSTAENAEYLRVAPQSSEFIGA

| Compound | IC50 [1, 6] [nM] | IC50 [1, 7] [nM] | IC50 [2, 8] [nM] | IC50 [2, 9] [nM] | IC50 [3, 10] [nM] | IC50 [3, 11] [nM] | IC50 [4, 12] [nM] | IC50 [4, 13] [nM] | IC50 [5, 14] [nM] | IC50 [5, 15] [nM] |
| --- | --- | --- | --- | --- | --- | --- | --- | --- | --- | --- |
| O=S(=O)(C1CC1)n1cc(-c2nccc(Nc3cc(OC4CCC(O)CC4)c(-c4ccn(C(F)F)n4)cn3)n2)cn1 (stereo not drawn) [Example 66, 4-((2-((2-(1-(Cyclopropylsulfonyl)-1H-pyrazol-4-yl)pyrimidin-4-yl)amino)-5-(1-(difluoromethyl)-1H-pyrazol-3-yl)pyridin-4-yl)oxy)cyclohexan-1-ol] | > 10000 | 38.9 | 80.1 | 5 | 0.4 | 0.3 | 4.5 | 7.7 | 2.7 | 0.3 |
| O=S(=O)(C1CC1)n1cc(-c2nccc(Nc3cc(OC4CCC(O)C4)c(-c4ccn(C(F)F)n4)cn3)n2)cn1 (stereo not drawn) [Example 67, 3-((2-((2-(1-(Cyclopropylsulfonyl)-1H-pyrazol-4-yl)pyrimidin-4-yl)amino)-5-(1-(difluoromethyl)-1H-pyrazol-3-yl)pyridin-4-yl)oxy)cyclopentan-1-ol] | > 10000 | 336 | 596 | 23.5 | 3.6 | 3.4 | 111 | 111 | 15.7 | 3.8 |
| CC1(O)CCC(Oc2cc(Nc3ccnc(-c4cnn(S(=O)(=O)C5CC5)c4)n3)ncc2-c2ccn(C(F)F)n2)CC1 (stereo not drawn) [Example 68, 4-((2-((2-(1-(Cyclopropylsulfonyl)-1H-pyrazol-4-yl)pyrimidin-4-yl)amino)-5-(1-(difluoromethyl)-1H-pyrazol-3-yl)pyridin-4-yl)oxy)-1-methylcyclohexan-1-ol] | > 10000 | 95.8 | 55.9 | 6.3 | 0.6 | 0.5 | 6.1 | 7.3 | 1.7 | 0.2 |
| CN[C@H]1CC[C@@H](Oc2cc(Nc3ccnc(-c4cnn(S(=O)(=O)C5CC5)c4)n3)ncc2-c2cnn(C(F)F)c2)CC1 [Example 69, 2-(1-(Cyclopropylsulfonyl)-1H-pyrazol-4-yl)-N-(5-(1-(difluoromethyl)-1H-pyrazol-4-yl)-4-(((1s,4s)-4-(methylamino)cyclohexyl)oxy)pyridin-2-yl)pyrimidin-4-amine] | > 10000 | 114 | 257 | 14.7 | 0.5 | 0.3 | 18.7 | 11.2 | 1.9 | 0.2 |
| O=S(=O)(C1CC1)n1cc(-c2nccc(Nc3cc(OC4CCC(OC(F)F)CC4)c(-c4cnn(C(F)F)c4)cn3)n2)cn1 (stereo not drawn) [Example 70, 2-(1-(Cyclopropylsulfonyl)-1H-pyrazol-4-yl)-N-(4-((4-(difluoromethoxy)cyclohexyl)oxy)-5-(1-(difluoromethyl)-1H-pyrazol-4-yl)pyridin-2-yl)pyrimidin-4-amine] | > 10000 | 1740 | 1490 | 57 | 9.7 | 10.2 | 190 | 202 | 13.5 | 3.8 |
| O=S(=O)(C1CC1)n1cc(-c2nccc(Nc3cc(OC4CCC(O)CC4)c(-c4cnn(C(F)F)c4)cn3)n2)cn1 (stereo not drawn) [Example 71, 4-((2-((2-(1-(Cyclopropylsulfonyl)-1H-pyrazol-4-yl)pyrimidin-4-yl)amino)-5-(1-(difluoromethyl)-1H-pyrazol-4-yl)pyridin-4-yl)oxy)cyclohexan-1-ol] | > 10000 | 26 | 42.3 | 2.6 | 0.2 | 0.2 | 1.7 | 3.4 | 0.8 | 0.1 |
| O=S(=O)(C1CC1)n1cc(-c2nccc(Nc3cc(OC4CCC(O)C4)c(-c4cnn(C(F)F)c4)cn3)n2)cn1 (stereo not drawn) [Example 72, 3-((2-((2-(1-(Cyclopropylsulfonyl)-1H-pyrazol-4-yl)pyrimidin-4-yl)amino)-5-(1-(difluoromethyl)-1H-pyrazol-4-yl)pyridin-4-yl)oxy)cyclopentan-1-ol] | > 10000 | 199 | 189 | 9.4 | 0.8 | 0.9 | 21.8 | 31.4 | 5.8 | 0.8 |
| CC1(N)CCC(Oc2cc(Nc3ccnc(-c4cnn(S(=O)(=O)C5CC5)c4)n3)ncc2-c2cnn(C(F)F)c2)CC1 (stereo not drawn) [Example 74, N-(4-((4-Amino-4-methylcyclohexyl)oxy)-5-(1-(difluoromethyl)-1H-pyrazol-4-yl)pyridin-2-yl)-2-(1-(cyclopropylsulfonyl)-1H-pyrazol-4-yl)pyrimidin-4-amine] | > 10000 | – | 1380 | – | 8.3 | – | 103 | – | 25.2 | – |

Further lines, results first:

| IC50 [1, 6] [nM] | IC50 [1, 7] [nM] | IC50 [2, 8] [nM] | IC50 [2, 9] [nM] | IC50 [3, 10] [nM] | IC50 [3, 11] [nM] | IC50 [4, 12] [nM] | IC50 [4, 13] [nM] | IC50 [5, 14] [nM] | IC50 [5, 15] [nM] | Compound |
| --- | --- | --- | --- | --- | --- | --- | --- | --- | --- | --- |
| 617 | 1.1 | 1.9 | 0.2 | 0.3 | 0.2 | 0.5 | 0.2 | 0.2 | 0.1 | O=S(=O)(C1CC1)n1cc(-c2nccc(Nc3cc(N[C@H]4CC[C@@H](NCCF)CC4)c(-c4cc5n(n4)CCCC5)cn3)n2)cn1 [Example 62, N^2-(2-(1-(Cyclopropylsulfonyl)-1H-pyrazol-4-yl)pyrimidin-4-yl)-N^4-((1s,4s)-4-((2-fluoroethyl)amino)cyclohexyl)-5-(4,5,6,7-tetrahydropyrazolo[1,5-a]pyridin-2-yl)pyridine-2,4-diamine] |
| > 10000 | 42.9 | 21 | – | 1 | 1 | 3.3 | 2.7 | – | 0.5 | CC(C)c1cc(-c2cnc(Nc3ccnc(-c4cnn(S(=O)(=O)C5CC5)c4)n3)cc2N[C@H]2CC[C@@](C)(O)CC2)on1 [Example 64, (1s,4s)-4-((2-((2-(1-(Cyclopropylsulfonyl)-1H-pyrazol-4-yl)pyrimidin-4-yl)amino)-5-(3-isopropylisoxazol-5-yl)pyridin-4-yl)amino)-1-methylcyclohexan-1-ol] |
| > 10000 | 149 | 622 | 33.5 | 1.2 | 0.8 | 54.5 | 33.5 | 4.2 | 0.6 | CN[C@H]1CC[C@@H](Oc2cc(Nc3ccnc(-c4cnn(S(=O)(=O)C5CC5)c4)n3)ncc2-c2ccn(C(F)F)n2)CC1 [Example 65, 2-(1-(Cyclopropylsulfonyl)-1H-pyrazol-4-yl)-N-(5-(1-(difluoromethyl)-1H-pyrazol-3-yl)-4-(((1s,4s)-4-(methylamino)cyclohexyl)oxy)pyridin-2-yl)pyrimidin-4-amine] |
| > 10000 | – | 173 | – | 1.1 | – | 37.1 | – | 16.8 | – | Cc1ncc(-c2cnc(Nc3ccnc(-c4cnn(S(=O)(=O)C5CC5)c4)n3)cc2N[C@H]2CC[C@@H](O)CC2)s1 [Example 75, (1s,4s)-4-((2-((2-(1-(Cyclopropylsulfonyl)-1H-pyrazol-4-yl)pyrimidin-4-yl)amino)-5-(2-methylthiazol-5-yl)pyridin-4-yl)amino)cyclohexan-1-ol] |
| 1520 | – | 3 | – | 0.7 | – | 0.4 | – | 2.3 | – | CC(C)(O)c1nc(-c2cnc(Nc3ccnc(-c4cnn(S(=O)(=O)C5CC5)c4)n3)cc2N[C@H]2CC[C@@H](O)CC2)cs1 [Example 76, (1s,4s)-4-((2-((2-(1-(Cyclopropylsulfonyl)-1H-pyrazol-4-yl)pyrimidin-4-yl)amino)-5-(2-(2-hydroxypropan-2-yl)thiazol-4-yl)pyridin-4-yl)amino)cyclohexan-1-ol] |
| > 10000 | – | 479 | – | 8.8 | – | 80.8 | – | 11.4 | – | O=S(=O)(C1CC1)n1cc(-c2nccc(Nc3cc(N[C@H]4CC[C@@H](O)CC4)c(-c4cnn(C(F)F)c4)cn3)n2)cn1 [Example 77, (1s,4s)-4-((2-((2-(1-(Cyclopropylsulfonyl)-1H-pyrazol-4-yl)pyrimidin-4-yl)amino)-5-(1-(difluoromethyl)-1H-pyrazol-4-yl)pyridin-4-yl)amino)cyclohexan-1-ol] |
| > 10000 | – | 161 | – | 4.8 | – | 38.5 | – | 5.4 | – | O=S(=O)(C1CC1)n1cc(-c2nccc(Nc3cc(N[C@H]4CC[C@@H](O)CC4)c(-c4cnn(C5CC5)c4)cn3)n2)cn1 [Example 78, (1s,4s)-4-((5-(1-Cyclopropyl-1H-pyrazol-4-yl)-2-((2-(1-(cyclopropylsulfonyl)-1H-pyrazol-4-yl)pyrimidin-4-yl)amino)pyridin-4-yl)amino)cyclohexan-1-ol] |
